The text below walks through data of ChEMBL document CHEMBL3351459, “Present status of quinoxaline motifs: excellent pathfinders in therapeutic medicine” (Eur J Med Chem, 2014).

≈ marks a conversion by molar mass, not a printed value.

For orientation: MIC means the lowest concentration that inhibits growth of the organism.

Assay [1] deals with Mycobacterium tuberculosis. Briefly: Antimycobacterial activity against rifampicin-resistant Mycobacterium tuberculosis. The assay is classed as functional.
Assay [2] has as its system Mycobacterium tuberculosis. As to the kind of experiment: Antimycobacterial activity against isoniazid-resistant Mycobacterium tuberculosis. The assay is classed as functional.

As to `CC(=O)c1c(C)[n+]([O-])c2ccc(Cl)cc2[n+]1[O-]`, the MIC is at most 0.39 µg/mL in assay [1] and 1.56 µg/mL (≈ 6.17 µM) in assay [2].
